Values of other authors, collected in patent US7087219B2, “Toothpaste containing anticancer agents” (priority 2003, dated 2006).

What was measured:
[1] = general statement; marketed as a food supplement
[2] = according to publications and patents (Burzynski et al. 1986)

**Q.** For `O=C1CCC(NC(=O)Cc2ccccc2)C(=O)N1` (centres unmarked) [3-N-phenylacetylamino-2,6-piperidinedione], which toxicity [1] is on record?
**A.** The toxicity was “completely non-toxic”.

**Q.** What about the “efficacy in treating cancers in clinical trials” value [2] of the same compound?
**A.** Its value is “effective in treating a variety of cancers in clinical trials”.
